Experiments:
Type in all cases: cell-based
Conditions in all cases: compounds at 50 nM and 500 nM, 24 hours
CK1α = molecular target: T1, CK1α (Homo sapiens, UniProt P48729+Q96SW2); assay: Western-blot assay, substrate protein degradation in hPBMCs: CK1α
T1 construct: effects of the compounds of the present disclosure on the expression of target proteins in cells; endogenous in cells; host or cells: human PBMCs (hPBMCs)
Protocol: (§1) Conventional Western blot assay was performed to evaluate the effects of the compounds of the present disclosure on the expression of target proteins in cells. • (1) Cell Seeding and Protein Harvesting: Human peripheral blood mononuclear cells (hPBMCs) at a density of 1x10^6 cells/mL were thawed according to the PBMC Recovery Protocol (Milecell Biotechnologies Inc, Shanghai). […] After 24 hours of compounds treatment, cells were harvested and lysed in RIPA protein lysate containing protease inhibitors on ice for 30 min, followed by centrifugation. The supernatant was aspirated as the extracted total cell protein. The protein concentration of the supernatant was determined using the conventional BCA (Bicinchoninic Acid) assay. • (2) To the collected supernatant, 5X SDS sample loading buffer was added, followed by denaturation at 95°C for 5 minutes. The denatured samples were then separated by SDS-PAGE electrophoresis on a polyacrylamide gel. Proteins were transferred to a nitrocellulose membrane (0.45 µm NC membrane), blocked with blocking buffer at room temperature for 1 hour, and subjected to antibody incubation and development procedures according to the antibody manufacturer's instructions (Cell Signaling Technology).
(§2) Half-Maximal Degradation Concentration value (the drug concentration required for degrading proteins by 50%, abbreviated as DC50) reads method: comparing the grayscale values of Western blot bands from drug-treated samples with those from blank DMSO-treated controls, and identifying the drug concentration range at which the grayscale value is half that of the DMSO-treated control bands.
(§3) DC50 values can be calculated using ImageJ software to measure grayscale values of Western blot bands from drug-treated samples. The concentration-response curve is fitted to estimate the drug concentration corresponding to half the grayscale value.
(§4) Target protein remaining (%) refers to the percentage of target protein remaining in cells after treatment with protein degrader compounds.
(§5) Calculation method for target protein remaining (%): Use ImageJ software to measure grayscale values of Western blot bands from drug (protein degrader)-treated samples. The grayscale value of drug-treated bands is divided by that of internal control protein bands, and the resulting quotient is normalized to obtain the relative percentage of remaining target protein after protein degrader treatment. Target protein degradation rate(%) = 1−target protein remaining(%). [formula]

IKZF3 = molecular target: T2, IKZF3 (Homo sapiens, UniProt Q96SW2+Q9UKT9); assay: Western-blot assay, substrate protein degradation in hPBMCs: IKZF3
T2 construct: effects of the compounds of the present disclosure on the expression of target proteins in cells; endogenous in cells; host or cells: human PBMCs (hPBMCs)
T2 sequence (Q9UKT9 whole entry): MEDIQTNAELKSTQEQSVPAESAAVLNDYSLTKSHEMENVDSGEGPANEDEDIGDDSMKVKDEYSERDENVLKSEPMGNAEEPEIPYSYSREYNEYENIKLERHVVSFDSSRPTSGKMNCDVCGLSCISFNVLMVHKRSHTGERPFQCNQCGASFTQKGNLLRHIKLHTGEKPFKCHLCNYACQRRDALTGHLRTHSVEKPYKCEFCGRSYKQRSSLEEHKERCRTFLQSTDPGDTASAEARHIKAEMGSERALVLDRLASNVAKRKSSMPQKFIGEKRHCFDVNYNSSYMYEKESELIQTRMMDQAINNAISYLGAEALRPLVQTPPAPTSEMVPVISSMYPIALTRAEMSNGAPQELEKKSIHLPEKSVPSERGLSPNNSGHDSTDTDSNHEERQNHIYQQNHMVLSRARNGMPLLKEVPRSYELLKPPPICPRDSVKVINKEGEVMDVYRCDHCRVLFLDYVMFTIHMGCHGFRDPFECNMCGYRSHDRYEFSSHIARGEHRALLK
T2 sequence (Q96SW2 whole entry): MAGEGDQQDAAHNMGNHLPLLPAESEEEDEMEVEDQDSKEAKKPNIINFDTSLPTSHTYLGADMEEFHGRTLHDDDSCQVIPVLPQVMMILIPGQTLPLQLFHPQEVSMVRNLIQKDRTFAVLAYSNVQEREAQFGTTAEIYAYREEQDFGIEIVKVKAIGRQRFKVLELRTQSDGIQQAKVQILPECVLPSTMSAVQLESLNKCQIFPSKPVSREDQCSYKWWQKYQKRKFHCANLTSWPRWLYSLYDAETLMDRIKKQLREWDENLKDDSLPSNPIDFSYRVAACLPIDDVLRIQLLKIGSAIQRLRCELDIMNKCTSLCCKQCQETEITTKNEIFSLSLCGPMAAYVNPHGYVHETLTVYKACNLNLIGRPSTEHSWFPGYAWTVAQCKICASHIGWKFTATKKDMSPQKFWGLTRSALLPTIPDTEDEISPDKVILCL
T2 sequence (Q16531 whole entry partner): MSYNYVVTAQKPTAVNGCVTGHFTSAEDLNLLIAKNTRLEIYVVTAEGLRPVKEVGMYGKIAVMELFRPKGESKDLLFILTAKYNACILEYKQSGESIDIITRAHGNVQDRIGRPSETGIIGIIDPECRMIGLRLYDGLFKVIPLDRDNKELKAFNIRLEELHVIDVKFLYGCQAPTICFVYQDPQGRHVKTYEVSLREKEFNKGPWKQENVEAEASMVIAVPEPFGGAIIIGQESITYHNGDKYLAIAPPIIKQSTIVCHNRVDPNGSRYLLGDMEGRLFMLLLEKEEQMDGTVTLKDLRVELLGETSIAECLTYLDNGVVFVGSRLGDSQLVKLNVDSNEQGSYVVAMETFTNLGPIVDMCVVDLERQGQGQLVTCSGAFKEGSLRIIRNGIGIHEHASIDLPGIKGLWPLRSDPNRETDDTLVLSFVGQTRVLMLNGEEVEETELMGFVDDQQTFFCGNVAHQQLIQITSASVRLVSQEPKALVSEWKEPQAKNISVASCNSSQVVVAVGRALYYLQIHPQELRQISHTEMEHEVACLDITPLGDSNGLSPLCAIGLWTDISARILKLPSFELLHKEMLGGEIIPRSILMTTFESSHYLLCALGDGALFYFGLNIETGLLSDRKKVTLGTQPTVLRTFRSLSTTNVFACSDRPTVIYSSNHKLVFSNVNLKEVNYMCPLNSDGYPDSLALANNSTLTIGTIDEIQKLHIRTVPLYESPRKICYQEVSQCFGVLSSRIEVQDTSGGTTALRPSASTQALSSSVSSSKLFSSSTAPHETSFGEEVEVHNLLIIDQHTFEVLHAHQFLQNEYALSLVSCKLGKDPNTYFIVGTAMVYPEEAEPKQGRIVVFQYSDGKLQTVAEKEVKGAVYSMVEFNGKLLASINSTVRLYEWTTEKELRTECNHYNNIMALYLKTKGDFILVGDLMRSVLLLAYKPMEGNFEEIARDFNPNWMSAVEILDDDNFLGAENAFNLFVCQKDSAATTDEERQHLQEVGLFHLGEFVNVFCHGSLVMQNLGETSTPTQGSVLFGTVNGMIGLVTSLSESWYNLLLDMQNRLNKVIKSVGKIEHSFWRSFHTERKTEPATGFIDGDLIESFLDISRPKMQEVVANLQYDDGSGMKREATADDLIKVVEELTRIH
Protocol: as §1, §2, §3, §4, §5

IKZF2 = molecular target: T3, IKZF2 (Homo sapiens, UniProt Q96SW2+Q9UKS7); assay: Western-blot assay, substrate protein degradation in hPBMCs: IKZF2
T3 construct: effects of the compounds of the present disclosure on the expression of target proteins in cells; endogenous in cells; host or cells: human PBMCs (hPBMCs)
T3 sequence (Q9UKS7 whole entry): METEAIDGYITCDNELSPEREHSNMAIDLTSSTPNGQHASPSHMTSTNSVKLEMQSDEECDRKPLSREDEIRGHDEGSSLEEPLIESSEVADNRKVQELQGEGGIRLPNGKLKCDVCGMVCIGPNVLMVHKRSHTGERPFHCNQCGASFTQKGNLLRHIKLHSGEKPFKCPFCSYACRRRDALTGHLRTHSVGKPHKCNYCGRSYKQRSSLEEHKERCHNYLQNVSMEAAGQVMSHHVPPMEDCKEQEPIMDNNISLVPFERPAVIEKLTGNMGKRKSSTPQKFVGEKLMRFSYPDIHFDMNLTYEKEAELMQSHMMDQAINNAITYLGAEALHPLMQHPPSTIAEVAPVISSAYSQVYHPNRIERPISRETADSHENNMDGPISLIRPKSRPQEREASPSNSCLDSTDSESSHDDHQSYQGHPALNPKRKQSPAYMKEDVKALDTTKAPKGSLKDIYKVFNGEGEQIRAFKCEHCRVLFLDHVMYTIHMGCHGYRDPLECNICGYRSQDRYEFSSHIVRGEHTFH
T3 sequence (Q96SW2 whole entry): as the sequence (Q96SW2 whole entry) above
T3 sequence (Q16531 whole entry partner): as the sequence (Q16531 whole entry partner) above
Protocol: as §1, §2, §3, §4, §5

WEE1 = molecular target: T4, WEE1 (Homo sapiens, UniProt P30291+Q96SW2); assay: Western-blot assay, substrate protein degradation in hPBMCs: WEE1
T4 construct: effects of the compounds of the present disclosure on the expression of target proteins in cells; endogenous in cells; host or cells: human PBMCs (hPBMCs)
T4 sequence (P30291 whole entry): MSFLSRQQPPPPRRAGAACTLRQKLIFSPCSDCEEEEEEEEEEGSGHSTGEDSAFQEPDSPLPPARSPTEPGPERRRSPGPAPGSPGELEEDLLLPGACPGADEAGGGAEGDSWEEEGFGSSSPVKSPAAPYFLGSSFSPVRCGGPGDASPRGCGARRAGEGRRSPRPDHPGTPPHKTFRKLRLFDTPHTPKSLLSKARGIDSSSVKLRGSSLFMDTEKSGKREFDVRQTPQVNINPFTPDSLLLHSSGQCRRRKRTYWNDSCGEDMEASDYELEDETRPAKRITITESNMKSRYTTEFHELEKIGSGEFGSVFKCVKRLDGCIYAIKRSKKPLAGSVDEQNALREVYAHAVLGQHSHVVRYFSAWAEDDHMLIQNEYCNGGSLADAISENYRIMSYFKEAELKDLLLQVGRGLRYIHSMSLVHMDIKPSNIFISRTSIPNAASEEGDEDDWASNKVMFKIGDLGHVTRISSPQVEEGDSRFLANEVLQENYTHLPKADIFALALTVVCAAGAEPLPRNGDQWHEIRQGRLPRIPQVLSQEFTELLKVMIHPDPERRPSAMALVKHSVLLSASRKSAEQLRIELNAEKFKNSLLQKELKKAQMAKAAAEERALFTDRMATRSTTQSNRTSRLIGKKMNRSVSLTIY
T4 sequence (Q96SW2 whole entry): as the sequence (Q96SW2 whole entry) above
T4 sequence (Q16531 whole entry partner): as the sequence (Q16531 whole entry partner) above
Protocol: as §1, §2, §3, §4, §5

IKZF1 = molecular target: T5, IKZF1 (Homo sapiens, UniProt Q13422+Q96SW2); assay: Western-blot assay, substrate protein degradation in hPBMCs: IKZF1
T5 construct: effects of the compounds of the present disclosure on the expression of target proteins in cells; endogenous in cells; host or cells: human PBMCs (hPBMCs)
T5 sequence (Q13422 whole entry): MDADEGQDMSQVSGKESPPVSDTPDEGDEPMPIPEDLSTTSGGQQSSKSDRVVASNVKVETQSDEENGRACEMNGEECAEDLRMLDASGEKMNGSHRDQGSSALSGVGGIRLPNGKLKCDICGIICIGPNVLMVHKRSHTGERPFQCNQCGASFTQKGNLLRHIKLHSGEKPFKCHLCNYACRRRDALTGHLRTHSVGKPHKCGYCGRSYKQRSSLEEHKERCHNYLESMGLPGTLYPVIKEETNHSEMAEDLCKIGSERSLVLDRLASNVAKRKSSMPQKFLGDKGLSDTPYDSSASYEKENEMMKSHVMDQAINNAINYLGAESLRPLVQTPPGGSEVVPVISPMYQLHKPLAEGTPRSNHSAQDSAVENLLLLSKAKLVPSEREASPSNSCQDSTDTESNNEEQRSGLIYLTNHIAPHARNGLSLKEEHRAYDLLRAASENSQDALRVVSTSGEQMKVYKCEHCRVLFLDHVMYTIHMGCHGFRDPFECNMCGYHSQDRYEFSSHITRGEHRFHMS
T5 sequence (Q96SW2 whole entry): as the sequence (Q96SW2 whole entry) above
T5 sequence (Q16531 whole entry partner): as the sequence (Q16531 whole entry partner) above
Protocol: as §1, §2, §3, §4, §5

GSPT1 = molecular target: T6, GSPT1 (Homo sapiens, UniProt P15170+Q96SW2); assay: Western-blot assay, substrate protein degradation in hPBMCs: GSPT1
T6 construct: effects of the compounds of the present disclosure on the expression of target proteins in cells; endogenous in cells; host or cells: human PBMCs (hPBMCs)
T6 sequence (P15170 whole entry): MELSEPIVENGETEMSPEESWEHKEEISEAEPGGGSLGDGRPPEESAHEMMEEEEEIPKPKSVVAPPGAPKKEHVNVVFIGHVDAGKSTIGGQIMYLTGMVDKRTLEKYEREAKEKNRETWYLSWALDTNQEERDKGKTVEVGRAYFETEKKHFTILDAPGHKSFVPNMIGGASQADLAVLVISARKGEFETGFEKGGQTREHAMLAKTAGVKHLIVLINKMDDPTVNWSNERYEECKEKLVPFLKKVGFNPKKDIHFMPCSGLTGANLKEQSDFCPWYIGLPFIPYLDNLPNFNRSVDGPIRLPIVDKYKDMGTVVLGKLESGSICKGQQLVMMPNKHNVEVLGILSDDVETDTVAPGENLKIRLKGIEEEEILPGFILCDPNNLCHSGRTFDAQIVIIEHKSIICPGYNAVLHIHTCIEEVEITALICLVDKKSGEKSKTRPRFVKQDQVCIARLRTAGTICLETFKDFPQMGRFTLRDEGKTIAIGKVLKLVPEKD
T6 sequence (Q96SW2 whole entry): as the sequence (Q96SW2 whole entry) above
T6 sequence (Q16531 whole entry partner): as the sequence (Q16531 whole entry partner) above
Protocol: as §1, §2, §3, §4, §5

## O=C1CCN(N2Cc3cc(CN4CCN(c5nsc6ccccc56)CC4)ccc3C2=O)C(=O)N1 [GT-04865, 1-(5-((4-(benzo[d]isothiazol-3-yl)piperazin-1-yl)methyl)-1-oxoisoindolin-2-yl)dihydropyrimidine-2,4(1H,3H)-dione]
CK1α
  CK1α substrate protein remaining %: B ("B" is defined as 80%< substrate protein remaining %≤ 100%)
IKZF3
  IKZF3 substrate protein remaining %: B ("B" is defined as 80%< substrate protein remaining %≤ 100%)
IKZF2
  IKZF2 substrate protein remaining %: B ("B" is defined as 80%< substrate protein remaining %≤ 100%)
WEE1
  WEE1 substrate protein remaining %: B ("B" is defined as 80%< substrate protein remaining %≤ 100%)
IKZF1
  IKZF1 substrate protein remaining %: A ("A" is defined as 0% ≤ substrate protein remaining % ≤ 80%)
GSPT1
  GSPT1 substrate protein remaining %: A ("A" is defined as 0% ≤ substrate protein remaining % ≤ 80%)

## O=C1CCN(N2Cc3cc(CN4CCN(C(c5ccccc5)c5ccncc5)CC4)ccc3C2=O)C(=O)N1 (stereo not drawn) [GT-04891, 1-(1-oxo-5-((4-(phenyl(pyridin-4-yl)methyl)piperazin-1-yl)methyl)isoindolin-2-yl)dihydropyrimidine-2,4(1H,3H)-dione]
CK1α
  CK1α substrate protein remaining %: B ("B" is defined as 80%< substrate protein remaining %≤ 100%)
IKZF3
  IKZF3 substrate protein remaining %: B ("B" is defined as 80%< substrate protein remaining %≤ 100%)
IKZF2
  IKZF2 substrate protein remaining %: A ("A" is defined as 0% ≤ substrate protein remaining % ≤ 80%)
WEE1
  WEE1 substrate protein remaining %: B ("B" is defined as 80%< substrate protein remaining %≤ 100%)
IKZF1
  IKZF1 substrate protein remaining %: A ("A" is defined as 0% ≤ substrate protein remaining % ≤ 80%)
GSPT1
  GSPT1 substrate protein remaining %: A ("A" is defined as 0% ≤ substrate protein remaining % ≤ 80%)

## O=C1CCN(N2Cc3cc(CN4CCN(C(c5ccc(Cl)cc5)c5ccc(Cl)cc5)CC4)ccc3C2=O)C(=O)N1 [GT-04895, 1-(5-((4-(bis(4-chlorophenyl)methyl)piperazin-1-yl)methyl)-1-oxoisoindolin-2-yl)dihydropyrimidine-2,4(1H,3H)-dione]
CK1α
  CK1α substrate protein remaining %: B ("B" is defined as 80%< substrate protein remaining %≤ 100%)
IKZF3
  IKZF3 substrate protein remaining %: B ("B" is defined as 80%< substrate protein remaining %≤ 100%)
IKZF2
  IKZF2 substrate protein remaining %: A ("A" is defined as 0% ≤ substrate protein remaining % ≤ 80%)
WEE1
  WEE1 substrate protein remaining %: B ("B" is defined as 80%< substrate protein remaining %≤ 100%)
IKZF1
  IKZF1 substrate protein remaining %: A ("A" is defined as 0% ≤ substrate protein remaining % ≤ 80%)
GSPT1
  GSPT1 substrate protein remaining %: A ("A" is defined as 0% ≤ substrate protein remaining % ≤ 80%)

## O=C1CCN(N2Cc3cc(CN4C[C@@H]5C[C@H]4CN5C(c4ccccc4)c4ccccc4)ccc3C2=O)C(=O)N1 [GT-04938, 1-(5-(((1S,4S)-5-benzhydryl-2,5-diazabicyclo[2.2.1]heptan-2-yl)methyl)-1-oxoisoindolin-2-yl)dihydropyrimidine-2,4(1H,3H)-dione]
CK1α
  CK1α substrate protein remaining %: B ("B" is defined as 80%< substrate protein remaining %≤ 100%)
IKZF3
  IKZF3 substrate protein remaining %: B ("B" is defined as 80%< substrate protein remaining %≤ 100%)
IKZF2
  IKZF2 substrate protein remaining %: A ("A" is defined as 0% ≤ substrate protein remaining % ≤ 80%)
WEE1
  WEE1 substrate protein remaining %: A ("A" is defined as 0% ≤ substrate protein remaining % ≤ 80%)
IKZF1
  IKZF1 substrate protein remaining %: B ("B" is defined as 80%< substrate protein remaining %≤ 100%)
GSPT1
  GSPT1 substrate protein remaining %: A ("A" is defined as 0% ≤ substrate protein remaining % ≤ 80%)

## Cc1ccc(N2CCN(Cc3ccc4c(c3)CN(N3CCC(=O)NC3=O)C4=O)CC2)s1 [GT-05083, 1-(5-((4-(5-methylthiophen-2-yl)piperazin-1-yl)methyl)-1-oxoisoindolin-2-yl)dihydropyrimidine-2,4(1H,3H)-dione]
CK1α
  CK1α substrate protein remaining %: B ("B" is defined as 80%< substrate protein remaining %≤ 100%)
IKZF3
  IKZF3 substrate protein remaining %: B ("B" is defined as 80%< substrate protein remaining %≤ 100%)
IKZF2
  IKZF2 substrate protein remaining %: A ("A" is defined as 0% ≤ substrate protein remaining % ≤ 80%)
WEE1
  WEE1 substrate protein remaining %: B ("B" is defined as 80%< substrate protein remaining %≤ 100%)
IKZF1
  IKZF1 substrate protein remaining %: B ("B" is defined as 80%< substrate protein remaining %≤ 100%)
GSPT1
  GSPT1 substrate protein remaining %: B ("B" is defined as 80%< substrate protein remaining %≤ 100%)

## Cc1ccsc1N1CCN(Cc2ccc3c(c2)CN(N2CCC(=O)NC2=O)C3=O)CC1 [GT-05084, 1-(5-((4-(3-methylthiophen-2-yl)piperazin-1-yl)methyl)-1-oxoisoindolin-2-yl)dihydropyrimidine-2,4(1H,3H)-dione]
CK1α
  CK1α substrate protein remaining %: B ("B" is defined as 80%< substrate protein remaining %≤ 100%)
IKZF3
  IKZF3 substrate protein remaining %: B ("B" is defined as 80%< substrate protein remaining %≤ 100%)
IKZF2
  IKZF2 substrate protein remaining %: A ("A" is defined as 0% ≤ substrate protein remaining % ≤ 80%)
WEE1
  WEE1 substrate protein remaining %: B ("B" is defined as 80%< substrate protein remaining %≤ 100%)
IKZF1
  IKZF1 substrate protein remaining %: B ("B" is defined as 80%< substrate protein remaining %≤ 100%)
GSPT1
  GSPT1 substrate protein remaining %: B ("B" is defined as 80%< substrate protein remaining %≤ 100%)

## Cc1cc(N2CCN(Cc3ccc4c(c3)CN(N3CCC(=O)NC3=O)C4=O)CC2)cs1 [GT-05087, 1-(5-((4-(5-methylthiophen-3-yl)piperazin-1-yl)methyl)-1-oxoisoindolin-2-yl)dihydropyrimidine-2,4(1H,3H)-dione]
CK1α
  CK1α substrate protein remaining %: B ("B" is defined as 80%< substrate protein remaining %≤ 100%)
IKZF3
  IKZF3 substrate protein remaining %: B ("B" is defined as 80%< substrate protein remaining %≤ 100%)
IKZF2
  IKZF2 substrate protein remaining %: B ("B" is defined as 80%< substrate protein remaining %≤ 100%)
WEE1
  WEE1 substrate protein remaining %: B ("B" is defined as 80%< substrate protein remaining %≤ 100%)
IKZF1
  IKZF1 substrate protein remaining %: B ("B" is defined as 80%< substrate protein remaining %≤ 100%)
GSPT1
  GSPT1 substrate protein remaining %: A ("A" is defined as 0% ≤ substrate protein remaining % ≤ 80%)

## Cc1cccc(N2CCN(Cc3ccc4c(c3)CN(N3CCC(=O)NC3=O)C4=O)CC2)n1 [GT-05125, 1-(5-((4-(6-methylpyridin-2-yl)piperazin-1-yl)methyl)-1-oxoisoindolin-2-yl)dihydropyrimidine-2,4(1H,3H)-dione]
CK1α
  CK1α substrate protein remaining %: A ("A" is defined as 0% ≤ substrate protein remaining % ≤ 80%)
IKZF3
  IKZF3 substrate protein remaining %: A ("A" is defined as 0% ≤ substrate protein remaining % ≤ 80%)
IKZF2
  IKZF2 substrate protein remaining %: B ("B" is defined as 80%< substrate protein remaining %≤ 100%)
WEE1
  WEE1 substrate protein remaining %: A ("A" is defined as 0% ≤ substrate protein remaining % ≤ 80%)
IKZF1
  IKZF1 substrate protein remaining %: A ("A" is defined as 0% ≤ substrate protein remaining % ≤ 80%)
GSPT1
  GSPT1 substrate protein remaining %: A ("A" is defined as 0% ≤ substrate protein remaining % ≤ 80%)

## O=C1CCN(N2Cc3cc(CN4CCN(c5cc(Cl)ccn5)CC4)ccc3C2=O)C(=O)N1 [GT-05128, 1-(5-((4-(4-chloropyridin-2-yl)piperazin-1-yl)methyl)-1-oxoisoindolin-2-yl)dihydropyrimidine-2,4(1H,3H)-dione]
CK1α
  CK1α substrate protein remaining %: A ("A" is defined as 0% ≤ substrate protein remaining % ≤ 80%)
IKZF3
  IKZF3 substrate protein remaining %: A ("A" is defined as 0% ≤ substrate protein remaining % ≤ 80%)
IKZF2
  IKZF2 substrate protein remaining %: A ("A" is defined as 0% ≤ substrate protein remaining % ≤ 80%)
WEE1
  WEE1 substrate protein remaining %: A ("A" is defined as 0% ≤ substrate protein remaining % ≤ 80%)
IKZF1
  IKZF1 substrate protein remaining %: A ("A" is defined as 0% ≤ substrate protein remaining % ≤ 80%)
GSPT1
  GSPT1 substrate protein remaining %: A ("A" is defined as 0% ≤ substrate protein remaining % ≤ 80%)

## O=C1CCN(N2Cc3cc(CN4CCN(c5ncccc5F)CC4)ccc3C2=O)C(=O)N1 [GT-05129, 1-(5-((4-(3-fluoropyridin-2-yl)piperazin-1-yl)methyl)-1-oxoisoindolin-2-yl)dihydropyrimidine-2,4(1H,3H)-dione]
CK1α
  CK1α substrate protein remaining %: A ("A" is defined as 0% ≤ substrate protein remaining % ≤ 80%)
IKZF3
  IKZF3 substrate protein remaining %: A ("A" is defined as 0% ≤ substrate protein remaining % ≤ 80%)
IKZF2
  IKZF2 substrate protein remaining %: A ("A" is defined as 0% ≤ substrate protein remaining % ≤ 80%)
WEE1
  WEE1 substrate protein remaining %: A ("A" is defined as 0% ≤ substrate protein remaining % ≤ 80%)
IKZF1
  IKZF1 substrate protein remaining %: A ("A" is defined as 0% ≤ substrate protein remaining % ≤ 80%)
GSPT1
  GSPT1 substrate protein remaining %: A ("A" is defined as 0% ≤ substrate protein remaining % ≤ 80%)

Reference: patent publication EP4722207A1, “OXOISOINDOLINYL-SUBSTITUTED TETRAHYDROPYRIMIDINEDIONE DERIVATIVE AND USE THEREOF” (Gluetacs Therapeutics (Shanghai) Co., Ltd., priority 2023, dated 2024)
